ChEMBL document CHEMBL1156278, “Novel benzothiophene H1-antihistamines for the treatment of insomnia” (Bioorg Med Chem Lett, 2010)
Active and inactive are the calls of the source. The calls are words filed in the database; no cut-off is given here.

Assays:
[1] = molecular target: Cytochrome P450 3A4 (Homo sapiens, UniProt P08684); test: Inhibition of recombinant CYP3A4 after 30 mins by fluorescence assay
[2] = molecular target: Histamine H1 receptor (Homo sapiens, UniProt P35367); test: Displacement of [3H]pyrilamine from human histamine H1 receptor expressed in CHO Flp-In cells after 90 mins by scintillation counting; type: cell-based
Histamine H1 receptor, sequence (P35367 whole entry): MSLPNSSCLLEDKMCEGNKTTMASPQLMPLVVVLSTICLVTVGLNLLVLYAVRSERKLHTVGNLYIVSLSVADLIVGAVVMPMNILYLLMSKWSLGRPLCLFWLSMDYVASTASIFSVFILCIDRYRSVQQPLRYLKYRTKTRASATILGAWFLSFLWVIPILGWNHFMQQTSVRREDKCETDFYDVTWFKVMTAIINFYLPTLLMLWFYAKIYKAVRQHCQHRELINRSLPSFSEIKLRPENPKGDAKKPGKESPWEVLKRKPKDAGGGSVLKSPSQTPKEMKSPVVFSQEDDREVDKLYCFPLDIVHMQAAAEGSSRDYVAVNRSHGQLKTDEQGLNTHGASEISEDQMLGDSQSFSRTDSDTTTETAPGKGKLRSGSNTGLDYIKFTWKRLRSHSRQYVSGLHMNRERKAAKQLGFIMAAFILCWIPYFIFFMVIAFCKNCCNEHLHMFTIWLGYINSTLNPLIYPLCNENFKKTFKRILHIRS

[3] = molecular target: T1, Muscarinic acetylcholine receptor M1 (Homo sapiens, UniProt P11229); test: Displacement of [3H]N-methylscopolamine from human muscarinic M1 receptor expressed in CHO Flp-In cells after 90 mins by scintillation counting; type: cell-based
T1 sequence (P11229 whole entry): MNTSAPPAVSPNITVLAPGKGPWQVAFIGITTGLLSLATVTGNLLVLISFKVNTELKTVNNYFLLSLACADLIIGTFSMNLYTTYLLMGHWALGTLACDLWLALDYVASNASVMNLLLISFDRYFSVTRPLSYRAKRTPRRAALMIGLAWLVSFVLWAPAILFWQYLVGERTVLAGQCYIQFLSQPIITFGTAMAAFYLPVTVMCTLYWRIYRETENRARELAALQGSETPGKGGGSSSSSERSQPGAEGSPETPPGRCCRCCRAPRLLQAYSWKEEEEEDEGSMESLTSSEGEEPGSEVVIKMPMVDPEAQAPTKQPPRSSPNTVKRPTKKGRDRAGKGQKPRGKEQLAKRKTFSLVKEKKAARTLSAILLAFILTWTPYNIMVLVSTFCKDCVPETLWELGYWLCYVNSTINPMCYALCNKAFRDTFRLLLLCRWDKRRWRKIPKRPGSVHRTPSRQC

[4] = Activity at P-glycoprotein
[5] = tested on: Rattus norvegicus; test: Effect on sleep-awake pattern in CD IGS rat model of insomnia assessed as latency to REM sleep at 30 mg/kg, po by EEG/EMG study relative to control; type: functional
[6] = tested on: Rattus norvegicus; test: Effect on sleep-awake pattern in CD IGS rat model of insomnia assessed as longest 3 NREM bouts at 60 mg/kg, po after 6 hrs by EEG/EMG study relative to control; type: functional
[7] = tested on: Rattus norvegicus; test: Effect on sleep-awake pattern in CD IGS rat model of insomnia assessed as longest 3 REM bouts at 30 mg/kg, po after 6 hrs by EEG/EMG study relative to control; type: functional
[8] = tested on: Rattus norvegicus; test: Increase in REM sleep in CD IGS rat model of insomnia at 30 mg/kg, po after 4 hrs by EEG/EMG study relative to control; type: functional
[9] = tested on: Rattus norvegicus; test: Increase in NREM sleep in CD IGS rat model of insomnia at 30 mg/kg, po after 4 hrs by EEG/EMG study relative to control; type: functional
[10] = tested on: Rattus norvegicus; test: Effect on sleep-awake pattern in CD IGS rat model of insomnia assessed as longest 3 REM bouts at 60 mg/kg, po after 6 hrs by EEG/EMG study relative to control; type: functional
[11] = Drug level in rat plasma at 30 mg/kg, po after 4 hrs; type: ADME, organism-based; set-up: dose 30 mg/kg, route oral
[12] = Systemic clearance in human at 0.1 mg/kg, iv by microdose study; type: ADME, organism-based; set-up: dose 0.1 mg/kg, route intravenous; conditions: in vivo
[13] = tested on: Rattus norvegicus; test: Effect on sleep-awake pattern in CD IGS rat model of insomnia assessed as latency to NREM sleep at 30 mg/kg, po by EEG/EMG study relative to control; type: functional
[14] = Bioavailability in human at 0.1 mg/kg by microdose study; type: ADME, organism-based; conditions: in vivo
[15] = Volume of distribution at steady state in human at 0.1 mg/kg by microdose study; type: ADME, organism-based; set-up: dose 0.1 mg/kg; conditions: in vivo, read-out: Vdss
[16] = Drug level in rat brain at 30 mg/kg, po after 4 hrs; type: ADME, organism-based; set-up: dose 30 mg/kg, route oral; conditions: read-out: Drug uptake
[17] = tested on: Rattus norvegicus; test: Effect on sleep-awake pattern in CD IGS rat model of insomnia assessed as longest 3 NREM bouts at 30 mg/kg, po after 6 hrs by EEG/EMG study relative to control; type: functional
[18] = AUC (0 to t) in human at 0.1 mg/kg, po by microdose study; type: ADME, organism-based; set-up: dose 0.1 mg/kg, route oral; conditions: plasma
[19] = tested on: Rattus norvegicus; test: Effect on sleep-awake pattern in CD IGS rat model of insomnia assessed as latency to NREM sleep at 60 mg/kg, po by EEG/EMG study relative to control; type: functional
[20] = tested on: Rattus norvegicus; test: Increase in NREM sleep in CD IGS rat model of insomnia at 60 mg/kg, po after 4 hrs by EEG/EMG study relative to control; type: functional
[21] = tested on: Rattus norvegicus; test: Increase in REM sleep in CD IGS rat model of insomnia at 60 mg/kg, po after 4 hrs by EEG/EMG study relative to control; type: functional
[22] = Half life in human at 0.1 mg/kg by microdose study; type: ADME, organism-based; set-up: dose 0.1 mg/kg; conditions: in vivo
[23] = Apparent permeability across human Caco-2 cells; type: ADME, cell-based
[24] = Ratio of drug level in rat brain to plasma at 30 mg/kg, po after 4 hrs; type: ADME, organism-based; set-up: dose 30 mg/kg, route oral
[25] = tested on: Rattus norvegicus; test: Effect on sleep-awake pattern in CD IGS rat model of insomnia assessed as latency to REM sleep at 60 mg/kg, po by EEG/EMG study relative to control; type: functional
[26] = molecular target: Cytochrome P450 2D6 (Homo sapiens, UniProt P10635); test: Inhibition of recombinant CYP2D6 after 30 mins by fluorescence assay
Cytochrome P450 2D6, sequence (P10635 whole entry): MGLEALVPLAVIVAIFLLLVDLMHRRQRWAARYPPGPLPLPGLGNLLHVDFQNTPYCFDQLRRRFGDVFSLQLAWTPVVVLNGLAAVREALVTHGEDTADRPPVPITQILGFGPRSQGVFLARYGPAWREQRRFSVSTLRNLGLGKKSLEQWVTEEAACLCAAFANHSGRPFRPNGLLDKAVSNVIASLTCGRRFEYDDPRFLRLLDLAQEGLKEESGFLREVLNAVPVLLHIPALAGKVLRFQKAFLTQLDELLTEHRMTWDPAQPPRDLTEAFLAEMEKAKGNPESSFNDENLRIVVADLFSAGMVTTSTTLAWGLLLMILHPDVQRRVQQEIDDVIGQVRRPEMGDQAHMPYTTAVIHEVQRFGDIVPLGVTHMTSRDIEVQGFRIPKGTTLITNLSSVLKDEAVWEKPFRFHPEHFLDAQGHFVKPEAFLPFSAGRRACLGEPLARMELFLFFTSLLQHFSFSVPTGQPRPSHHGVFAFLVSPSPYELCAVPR

[27] = molecular target: T2, Voltage-gated inwardly rectifying potassium channel KCNH2 (Homo sapiens, UniProt Q12809); test: Displacement of [3H]Dofetilide from human ERG
T2 sequence (Q12809 whole entry): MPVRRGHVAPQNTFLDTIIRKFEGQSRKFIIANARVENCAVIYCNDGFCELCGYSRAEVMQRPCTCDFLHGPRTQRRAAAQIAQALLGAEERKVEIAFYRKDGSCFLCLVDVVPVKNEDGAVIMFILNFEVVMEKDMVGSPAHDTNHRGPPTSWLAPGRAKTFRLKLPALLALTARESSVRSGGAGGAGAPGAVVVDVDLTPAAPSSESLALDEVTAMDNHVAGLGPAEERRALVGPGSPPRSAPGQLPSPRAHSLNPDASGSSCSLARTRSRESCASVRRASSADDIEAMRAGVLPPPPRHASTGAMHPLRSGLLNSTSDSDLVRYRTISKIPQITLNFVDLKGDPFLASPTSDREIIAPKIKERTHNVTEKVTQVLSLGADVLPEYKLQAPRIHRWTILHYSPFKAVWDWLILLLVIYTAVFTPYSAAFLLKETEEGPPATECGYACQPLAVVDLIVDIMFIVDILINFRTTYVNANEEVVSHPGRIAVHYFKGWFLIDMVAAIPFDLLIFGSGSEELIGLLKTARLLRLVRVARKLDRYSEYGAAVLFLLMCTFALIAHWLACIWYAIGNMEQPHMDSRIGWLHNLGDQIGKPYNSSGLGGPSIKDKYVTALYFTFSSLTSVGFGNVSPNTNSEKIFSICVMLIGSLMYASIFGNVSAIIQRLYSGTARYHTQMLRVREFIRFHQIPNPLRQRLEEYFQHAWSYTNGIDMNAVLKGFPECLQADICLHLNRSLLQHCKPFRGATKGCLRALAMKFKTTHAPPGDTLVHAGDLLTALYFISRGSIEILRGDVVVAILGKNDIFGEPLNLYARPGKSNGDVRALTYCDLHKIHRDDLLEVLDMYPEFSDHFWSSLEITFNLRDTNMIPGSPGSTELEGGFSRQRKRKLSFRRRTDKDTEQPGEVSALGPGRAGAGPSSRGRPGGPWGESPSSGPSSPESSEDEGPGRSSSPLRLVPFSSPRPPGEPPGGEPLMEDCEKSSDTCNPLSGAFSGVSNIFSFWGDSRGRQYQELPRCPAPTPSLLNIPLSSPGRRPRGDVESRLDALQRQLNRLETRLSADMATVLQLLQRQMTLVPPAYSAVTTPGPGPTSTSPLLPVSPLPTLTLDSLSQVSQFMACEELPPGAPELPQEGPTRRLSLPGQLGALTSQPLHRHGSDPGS

[28] = molecular target: T2, Voltage-gated inwardly rectifying potassium channel KCNH2; test: Inhibition of human ERG expressed in HEK cells assessed as blockade of potassium tail current by standard patch clamp analysis
[29] = tested on: Caco-2; test: Ratio of permeability from apical to basolateral side over basolateral to apical side in human Caco-2 cells

Cytochrome P450 3A4, sequence (P08684 whole entry): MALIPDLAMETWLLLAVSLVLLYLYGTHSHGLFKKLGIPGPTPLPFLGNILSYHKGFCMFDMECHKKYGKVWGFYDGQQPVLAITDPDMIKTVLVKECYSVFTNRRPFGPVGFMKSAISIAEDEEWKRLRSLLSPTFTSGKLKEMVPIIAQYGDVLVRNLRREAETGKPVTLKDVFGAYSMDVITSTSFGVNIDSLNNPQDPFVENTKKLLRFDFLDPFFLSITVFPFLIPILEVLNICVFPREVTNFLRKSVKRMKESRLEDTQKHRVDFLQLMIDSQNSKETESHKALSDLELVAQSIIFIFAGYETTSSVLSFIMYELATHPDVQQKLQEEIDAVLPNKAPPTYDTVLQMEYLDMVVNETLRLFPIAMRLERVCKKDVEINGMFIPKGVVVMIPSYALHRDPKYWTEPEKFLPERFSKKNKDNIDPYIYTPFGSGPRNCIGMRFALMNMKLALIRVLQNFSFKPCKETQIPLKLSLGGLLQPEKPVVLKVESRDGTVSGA

Row | SMILES | IC50 [1] [µM] | Ki ([2]; read-out: Ki) [µM] | Ki ([3]; read-out: Ki) [µM] | IC50 [26] [µM] | Activity [4] | concentration at 4 h [11] [ng/mL] | concentration at 4 h [16] [ng/g] | Papp [23] [×10⁻⁶ cm/s] | Ki [27] [µM] | IC50 [28] [µM] | also measured
1 | C[C@H](c1cccnc1F)c1c(CCN(C)C)sc2ccccc12 |  | 0.0017 | > 10 |  | inactive | 3 | 83 | > 21.7 |  |  | Activity [5]: 49 min; Activity [6]: 6.7 min; Activity [7]: 2.1 min; Activity [8]: 6.4%; Activity [9]: 27.4%; Activity [10]: 2.2 min; clearance [12]: 12.1 mL/min/kg; Activity [13]: 33 min; bioavailability [14]: 23%; Vd [15]: 5.6 L/kg; Activity [17]: 5.8 min; AUC(0-t) [18]: 0.64 ng·h/mL; Activity [19]: 45 min; Activity [20]: 32%; Activity [21]: 6.6%; half-life [22]: 13 h; Kp at 4 h ([24]; read-out: Ratio): 26; Activity [25]: 64 min
2 | C[C@@H](c1ncccc1Cl)c1c(CCN(C)C)sc2ccccc12 | > 10 | 0.008 | > 10 | 1.5 |  |  |  |  | > 5 |  | 
3 | Cc1ncccc1[C@@H](C)c1c(CCN(C)C)sc2ccccc12 | > 10 | 0.017 | > 10 | > 10 |  |  |  |  | > 5 |  | 
4 | C[C@H](c1c(CCN(C)C)sc2ccccc12)n1cccn1 | > 10 | 0.0044 | > 10 |  | inactive | 0.6 | 11 | > 21.7 | > 5 | 2 | Ratio [29]: > 0.7; Kp at 4 h ([24]; read-out: BPR): 20
5 | COc1cccnc1[C@H](C)c1c(CCN(C)C)sc2ccccc12 | > 10 | 0.005 | > 10 | 9.5 |  |  |  |  | > 5 | 3 | 
6 | COc1ncccc1[C@@H](C)c1c(CCN(C)C)sc2ccccc12 | > 10 | 0.0029 | > 10 | 9.6 | inactive | 37.5 | 347 | > 21.7 | > 5 | 1.8 | Activity [5]: 56 min; Activity [6]: 6.7 min; Activity [7]: 2.3 min; Activity [8]: 7%; Activity [9]: 33.1%; Activity [10]: 2.3 min; Activity [13]: 37 min; Ratio [29]: > 0.7; Activity [17]: 7 min; Activity [19]: 49 min; Activity [20]: 28.3%; Activity [21]: 6.8%; Kp at 4 h ([24]; read-out: Ratio): 9; Activity [25]: 72 min
7 | COc1cccc(C(C)c2c(CCN(C)C)sc3ccccc23)n1 (racemic) | > 10 | 0.059 | > 10 |  |  |  |  |  | > 5 |  | 

The next lines start with results.

Row | IC50 [1] [µM] | Ki ([2]; read-out: Ki) [µM] | Ki ([3]; read-out: Ki) [µM] | IC50 [26] [µM] | SMILES | Activity [4] | concentration at 4 h [11] [ng/mL] | concentration at 4 h [16] [ng/g] | Papp [23] [×10⁻⁶ cm/s] | Ki [27] [µM] | IC50 [28] [µM] | also measured
8 | > 10 | 0.0093 | > 10 |  | Cc1cccnc1[C@H](C)c1c(CCN(C)C)sc2ccccc12 |  |  |  |  |  |  | 
9 | > 10 |  | 0.99 | 3.3 | C[C@H](c1ccccn1)c1c(CCN(C)C)sc2ccccc12 |  |  |  |  | > 5 |  | Ki [2]: 0.256 µM
10 | 2.8 |  | 5.6 | 0.85 | CC(c1ccncc1)c1c(CCN(C)C)sc2ccccc12 (racemic) |  |  |  |  | 1.8 |  | Ki [2]: 0.023 µM
11 | > 10 | 0.0029 | > 10 | 9.5 | C[C@H](c1cccnc1Cl)c1c(CCN(C)C)sc2ccccc12 |  |  |  |  | > 5 | 1.5 | 
12 | > 10 | 0.004 |  |  | C[C@@H](c1ccccn1)c1c(CCN(C)C)sc2ccccc12 | inactive | 2.8 | 23 | > 21.7 | > 5 | 1.4 | clearance [12]: 6.2 mL/min/kg; bioavailability [14]: 47%; Ratio [29]: > 0.7; AUC(0-t) [18]: 2.78 ng·h/mL; Ki [3]: 5.3 µM; half-life [22]: 6.8 h; Kp at 4 h ([24]; read-out: Ratio): 8
13 | > 10 | 0.0046 | 4.76 |  | C[C@@H](c1cscn1)c1c(CCN(C)C)sc2ccccc12 |  |  |  |  |  |  | 
